Results: ChEMBL document CHEMBL1135141, “Inhibition of glutathione S-transferase in rat hepatocytes by a glycine-tetrazole modified S-alkyl-GSH analogue” (Bioorg Med Chem Lett, 2002)

Columns and labels:
Conditions in all cases: concentration not given here
[1] = target: Glutathione S-transferase alpha-3 (Rattus norvegicus) (UniProt P04904); assay: Tested for percent inhibition of isolated rat liver cytosolic Glutathione S-transferase 2-2 isoenzyme
[2] = target: T1, Glutathione S-transferase Mu 2 (Rattus norvegicus) (UniProt P08010); assay: Tested for percent inhibition of isolated rat liver cytosolic Glutathione S-transferase 4-4 isoenzyme
T1 sequence (whole entry): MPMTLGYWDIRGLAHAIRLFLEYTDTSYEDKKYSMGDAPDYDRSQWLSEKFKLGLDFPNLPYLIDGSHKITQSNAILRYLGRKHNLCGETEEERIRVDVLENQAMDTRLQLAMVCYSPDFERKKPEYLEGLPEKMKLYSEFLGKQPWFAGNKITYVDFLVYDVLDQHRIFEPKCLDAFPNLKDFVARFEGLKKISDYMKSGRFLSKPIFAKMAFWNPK

[3] = target: Glutathione S-transferase alpha-1 (Rattus norvegicus) (UniProt P00502); assay: Tested for percent inhibition of isolated rat liver cytosolic Glutathione S-transferase 1-1 isoenzyme
Glutathione S-transferase alpha-1 (Rattus norvegicus), sequence (P00502 whole entry, looked up): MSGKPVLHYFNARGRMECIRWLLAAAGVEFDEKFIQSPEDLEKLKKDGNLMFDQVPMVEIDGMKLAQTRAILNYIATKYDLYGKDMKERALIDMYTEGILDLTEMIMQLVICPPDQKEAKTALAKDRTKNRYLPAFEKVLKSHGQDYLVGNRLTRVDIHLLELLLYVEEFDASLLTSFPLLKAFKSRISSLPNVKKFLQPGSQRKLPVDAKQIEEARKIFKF

[4] = target: T2, Glutathione S-transferase Mu 1 (Rattus norvegicus) (UniProt P04905); assay: Tested for percent inhibition of isolated rat liver cytosolic Glutathione S-transferase 3-3 isoenzyme
T2 sequence (whole entry): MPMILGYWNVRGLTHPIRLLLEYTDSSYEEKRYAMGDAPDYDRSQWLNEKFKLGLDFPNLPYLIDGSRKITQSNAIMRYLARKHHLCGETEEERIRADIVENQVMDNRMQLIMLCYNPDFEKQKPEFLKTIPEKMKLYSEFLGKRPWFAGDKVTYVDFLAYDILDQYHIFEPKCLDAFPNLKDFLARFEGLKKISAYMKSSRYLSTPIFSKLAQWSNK

Glutathione S-transferase alpha-3 (Rattus norvegicus), sequence (P04904 whole entry, looked up): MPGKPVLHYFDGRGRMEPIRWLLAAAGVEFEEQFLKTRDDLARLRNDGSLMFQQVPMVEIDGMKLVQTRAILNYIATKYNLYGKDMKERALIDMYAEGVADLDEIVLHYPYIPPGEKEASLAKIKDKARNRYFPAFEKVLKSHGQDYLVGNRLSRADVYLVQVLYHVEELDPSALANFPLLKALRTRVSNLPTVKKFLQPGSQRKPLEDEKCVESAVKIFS

Structure (SMILES): CCCCCC(C)SCC(NC(=O)CCC(N)C(=O)O)C(=O)NCC(=O)O (single isomer, unassigned)
- inhibition [1]: 98%
- inhibition [2]: 91%
- inhibition [3]: 53%
- inhibition [4]: 95%

Structure (SMILES): CCCCCC(C)SCC(NC(=O)CCC(N)C(=O)O)C(=O)NCc1nn[nH]n1 (stereo not drawn)
- inhibition [1]: 53%
- inhibition [2]: 59%
- inhibition [3]: 16%
- inhibition [4]: 65%
